Measurements taken from patent EP2958933B1, “CROSSLINKED PEPTIDE HYDROGELS” (Agency for Science, Technology and Research, priority 2013, dated 2018).
Peptide text beside a SMILES is read from it.

Tests used:
[1] = Concentration dependence of self-assembly (aggregates, fibers); format: physicochemical
Description: An amphiphilic linear sequence of an amphiphilic peptide and/or peptoid disclosed herein, including an amphiphilic linear peptide and/or peptoid, is capable of providing a self assembling α-helical fiber in aqueous solution under physiological conditions. The peptides/peptoids (typically 3-7-mers) in the L- or D-form can self assemble into supramolecular helical fibers which are organized into mesh-like structures mimicking biological substances such as collagen. It has previously been observed in X-ray crystallography that peptides of a length of 3 to 6 amino acids with repetitive alanine containing sequences and an acetylated […] take a helical conformation (Hatakeyama, Y, et al, Angew. Chem. Int. Ed. (2009) 8695-8698). Using peptides with an amphiphilic sequence disclosed herein, Ac-LD6 (L), the formation of aggregates has for example been observed already at 0.1 mg/ml. […] With a formation of fibers occurring under physiological conditions at concentrations below 2 mM a peptide/peptoid disclosed herein is well suited as an injectable hydrogel material that can form a hydrogel under physiological conditions. Also disclosed herein is an amphiphilic linear peptide and/or peptoid as defined above for tissue engineering as well as to a tissue engineering method that involves applying, including injecting a respective amphiphilic linear peptide and/or peptoid.

[2] = Oscillation rheology of casted crosslinkable gels (frequency and amplitude sweep); format: physicochemical; conditions: for gel stiffness on LK6-doping: final concentration 12 mM, cast-and-soak 0.06% H2O2 two hours; for stiffness after water soak: without oxidation
Procedure: Peptide was dissolved in 200 µL of water +/- H2O2 and filled into custom-made hollow ring casts (diameter ∼1 cm). The ring ends were sealed with parafilm to minimise evaporation and the cast was kept at 25°C for 22 hours before further manipulations.
(§1) Rheology: The rheological properties of casted gels were measured with an ARES-G2 (TA Instruments, USA) using the oscillation method. Frequency-sweep studies were performed with ω=0-100 rad/s at strain, γ=0.1%. The gel stiffness was represented by plotting G' against ω. Amplitude-sweep studies were performed beforehand at 1 Hz with γ=0-100%. The LVE limit of the gel was defined as the value of γ when G' first dropped below 90% of the average initial value.
as §1, with “The” for “Rheology: The”

[3] = Determination of a suitable gelation concentration; format: physicochemical; conditions: for working concentration at which gels are formed: gels with sufficient mechanical integrity to withstand handling / gel formation
Description: Reference is now made to the figures, wherein: • Figures 1A to 1M represent a sorted list of some exemplary peptides capable of forming hydrogels. These peptides are examples in which the entire peptide consists of a single linear amphiphilic sequence. Peptides which are forming hydrogels are named with a short code, but their individual sequence is disclosed. The peptides of these examples consist of a sequence of natural amino acids containing 3 to 7 amino acids. The N-terminus is acetylated which removes the charge that would otherwise restrain the amphiphilic character of the peptides. • Figure 2 depicts gelation pictures for peptide based hydrogels at lowest concentrations. • Figure 3 depicts gelation pictures for Ac-AS-6 (Ac-AIVAGS) (L) at concentrations of 5 mg/ml, 10 mg/ml, 15 mg/ml. • Figure 4 depicts a hypothesis of self-assembly from peptide monomers to supramolecular network of condensed fibers. (A) Assembly is believed to initiate with antiparallel pairing of two peptide monomers by changing to α-helical conformations. Subsequently, peptide pairs assemble to fibers and nanostructures. Condensation of peptide fibers to fiber aggregates results in hydrogel formation. • Figure 5 depicts environmental scanning electron microscopy (ESEM) images of hydrogels of Ac-LD6 (Ac-LIVAGD) (L) (10 mg/ml), where Fig. 5A, Fig. 5B and Fig. 5C are images obtained at magnification of 260X, 1000X, 2000X, 2400X, 4000X at a temperature of 4 °C with HV at 10KV. […] 8A), and 450 X (fig. […] (a) A honeycomb porous structure is observed following lyophilization of 20 mg/mL Ac-AD6 (Ac-AIVAGD) (D) hydrogel. The pores are bounded by membranes of condensed fibers as shown in close-up views of 15 mg/mL (b) and 20 mg/mL (c) Ac-ID3 (Ac-IVD) (L) hydrogels. […] Heating the samples to facilitate gelation increased the β type aggregation. […] (e) Far-UV CD spectra of AcID3 (Ac-IVD) at different concentrations. […] (a, b) The high mechanical strengths of different peptide hydrogels at 20 mg/mL concentration was determined by measuring storage moduli (G') as a function of angular frequency under 0.1% strain, at 25°C and 50°C respectively. […] (c) Mechanical strength is a function of concentration, as determined from oscillatory frequency sweep studies using Ac-LD6 (Ac-LIVAGD) (L) under 0.1% strain at 25°C. […] LK6 gels were therefore casted at different concentrations and their stiffness was measured (average ± s.d. of triplicates). As expected, G' values increased with peptide concentration and it was determined that a working concentration of 12 mM afforded gels with sufficient mechanical integrity to withstand handling. […]

[4] = Water soak of casted gels (resistance to degradation, shape retention); format: physicochemical; conditions: non-oxidised gels, 24 hours of water soak
[5] = tested on: skins of guinea pigs; experiment: Direct contact Kligman maximization test (GLP, ISO 10993-10); format: in vivo
[6] = tested on: V79; experiment: Direct contact V79 colony assay (GLP); format: cell-based
[7] = tested on: HepG2 cells; experiment: 3D cell culture on gels, calcein live-cell staining; format: cell-based; conditions: purified gels conjugated with different concentrations of RGD, after four days
Procedure: LK6C +/- CRGD gels were casted directly into 8-chamber Lab-Tek® wells (Nunc, NY, USA) and purified as reported in the SI. 0.5 mL of cell suspension in regular completed DMEM (Invitrogen, Singapore) was either seeded onto the gel or directly into the well (2D control) and incubated for four days. 0.5 µL of calcein-AM (Invitrogen) was then added to the media to identify live cells and images were captured using a confocal microscope (LSM5 DUO, Carl Zeiss, Germany). Beforehand, calcein-AM was verified to stain only live cells as ethanol- and H2O2-treated cells excluded the dye. All images, except for the 2D controls, were presented as mergers of several z-stacks. To further verify the 3D distribution of cells, the gel was embedded vertically in Jung Tissue Freezing Medium (Leica Instruments GmbH, Germany) and 20 µm cross-sectional slices were obtained with a cryostat (CM3050 S, Leica). Sections were mounted with coverslips and imaged as above.
To test for biocompatibility, HepG2 cells were either seeded directly into wells (2D control) or onto purified LK6C gels conjugated with different concentrations of RGD. […] This was repeated with primary rabbit fibroblasts (Figure 35), 3T3 murine fibroblasts (Figure 38) and NIH-3T3 murine fibroblasts (data not shown), confirming the biocompatibility of the gels. With regular media changes, cells remained viable for at least 3 weeks (Figure 38). […]

[8] = tested on: Fibroblasts isolated from the cornea/sclera of New Zealand White rabbits; experiment: Quantification of cell-spread area (ImageJ); format: cell-based; conditions: various gel cultures, ANOVA p<0.05
Description: (§2) Reference is now made to the figures, wherein: • Figures 1A to 1M represent a sorted list of some exemplary peptides capable of forming hydrogels. These peptides are examples in which the entire peptide consists of a single linear amphiphilic sequence. Peptides which are forming hydrogels are named with a short code, but their individual sequence is disclosed. The peptides of these examples consist of a sequence of natural amino acids containing 3 to 7 amino acids. […] (a, b) The high mechanical strengths of different peptide hydrogels at 20 mg/mL concentration was determined by measuring storage moduli (G') as a function of angular frequency under 0.1% strain, at 25°C and 50°C respectively. […] (c) Mechanical strength is a function of concentration, as determined from oscillatory frequency sweep studies using Ac-LD6 (Ac-LIVAGD) (L) under 0.1% strain at 25°C. […] LK6 gels were therefore casted at different concentrations and their stiffness was measured (average ± s.d. of triplicates). As expected, G' values increased with peptide concentration and it was determined that a working concentration of 12 mM afforded gels with sufficient mechanical integrity to withstand handling. […]

[9] = tested on: HepG2 cells; experiment: Quantification of cell-spread area (ImageJ); format: cell-based; conditions: gel culture in the presence or absence of RGD
Description: Confocal images after calcein staining were processed using ImageJ (NIH, USA) to obtain the average cell-spread area under various culture conditions. For cells in 3D gel culture, images used for quantification were mergers of several z-stacks to capture the maximum cell-spread area. In all cases, at least three independent experiments with at least two locations selected from each culture were used for averaging.

[10] = tested on: Fibroblasts isolated from the cornea/sclera of New Zealand White rabbits; experiment: 3D primary cell culture on gels, calcein live-cell staining; format: cell-based; conditions: purified gels +/- various concentrations of CRGD, four days
Description: as §2

Molecule	concentration at which formation of aggregates is observed [1] [µg/mL]	concentration at which peptide monomers align to form fibrous structures [1] [µg/mL]	gel stiffness on LK6-doping [2]	material needed for gelation [3] [mg/mL]	working concentration at which gels are formed [3] [mM]	gel degradation after water soak [4]	sensitization [5]	toxicity [6]	shape and stiffness after water soak ([2]; 12 mM gel, 2 or 24 hours cast-and-soak or 22 hours in situ oxidation with 0.06% H2O2, up to four days of water soak)	stiffness after water soak ([2]; 12 mM gel, 24 hours of water soak)	stiffness after water soak ([2]; 12 mM gel, two hours of water soak)	stiffness (G') following oxidation ([2]; compared to non-oxidised gels, different oxidation regimes)	linear viscoelastic (LVE) limit (elasticity), increase following oxidation ([2]; oxidised vs non-oxidised gels, cast-and-soak 2-24 hours 0.06% H2O2 or in situ 24 hours 0.03-0.1% H2O2)	cell viability (calcein staining) [7]	cell-spread area vs 2D culture [8]	cell spreading vs regular 2D culture [9]	cell viability (calcein staining) [10]
CC[C@H](C)[C@H](NC(=O)[C@H](CC(C)C)NC(C)=O)C(=O)N[C@H](C(=O)N[C@@H](C)C(=O)NCC(=O)N[C@@H](CC(=O)O)C(=O)O)C(C)C [Ac-LD6 (L), Ac-LIVAGD-COOH] (Ac-LIVAGD-OH)	100	1000															
LIVAGK [LK6]			relatively stiff	25	12	completely degraded											
LIVAGKC [LK6C, cross-linkable peptide, LK6 modified with a cysteine residue at the C-terminus; forms hydrogels]			relatively stiff	10	12		no sensitization	no significant toxicity	maintained their shapes and in fact, became stiffer	broke down and lost their stiffness	could maintain their stiffness	either maintained or increased	2.4-3.8 fold	viable	spreaded more in 2D culture compared to those in the various gel cultures	insignificant effects (p>0.05)	viable fibroblasts were seen in all cases
